# Laboratory results taken from the Bradley open melting point set (2014).
row,Compound,melting point [°C]
1,N#CCCC#N [succinonitrile],56
2,C=CC(=O)OC [methyl acrylate],-75
3,c1cc2ccc1CCc1ccc(cc1)CC2 [[2.2]paracyclophane],286
4,"O=P1(N(CCCl)CCCl)NCCCO1 (centres undefined) [N,N-Bis(2-chloroethyl)-1,3,2-oxazaphosphinan-2-amine 2-oxide]",43
5,NNC(=O)c1ccncc1 [Isoniazid],171
6,"COC(=O)c1cccc(C(=O)OC)n1 [dimethyl pyridine-2,6-dicarboxylate]",121
7,Cc1cccc([N+](=O)[O-])c1 [m-nitrotoluene],16
8,Nc1c2c(nc3ccccc13)CCCC2O (centres undefined) [velnacrine],245
9,CC1=CC(O)(c2ccccc2)c2ccccc21 (centres undefined) [3-methyl-1-phenyl-1H-inden-1-ol],76
10,Cc1ccc(Cl)c(N)c1 [2-chloro-5-methylaniline],32
11,CC(=O)NS(=O)(=O)c1ccc(N)cc1 [sulfacetamide],182
12,Clc1ncnc2sc3c(c12)CCC3,105
13,O=C1NC(=O)c2cc([N+](=O)[O-])ccc21 [4-nitrophthalimide],202
14,CCCCCCCCCCCCCCC(C)O (centres undefined) [2-hexadecanol],47
15,O=C(Oc1ccccc1)c1ccccc1O [phenyl salicylate],43
16,C1CC1 [cyclopropane],-127
17,CCCOC(C)=O [propyl_acetate],-95
18,O=S(=O)=O [Oxosulfane dioxide],16.8
19,"O=Cc1csnn1 [1,2,3-thiadiazole-4-carboxaldehyde]",85
20,N#Cc1ccccc1[N+](=O)[O-] [2-nitrobenzonitrile],109
21,CCCOC(=O)c1ccc(O)cc1 [propyl p-hydroxybenzoate],96
22,"BrCCCCCCBr [1,6-dibromohexane]",-2
23,Cc1cccc2c(O)cc(C(F)(F)F)nc12 [4-hydroxy-8-methyl-2-(trifluoromethyl)quinoline],128
24,CCCCCC(C)(C)O [2-methyl-2-heptanol],-50
25,Nc1ccc([N+](=O)[O-])cc1 [4-Nitroaniline],148

row,Compound,melting point [°C]
1,COC(=O)CC(C)=O [methyl acetoacetate],-80
2,"O=Cc1ccc(O)cc1O [2,4-dihydroxybenzaldehyde]",136
3,CC(=O)CC(=O)c1ccccc1 [benzoylacetone],59
4,"O=Cc1c(Cl)cccc1Cl [2,6-dichlorobenzaldehyde]",71
5,O=C(/C=C/c1ccccc1)n1ccnc1 [1-(trans-cinnamoyl)imidazole],130
6,O=C=Nc1ccccc1 [phenyl isocyanate],-33
7,"ClC(Cl)c1ccccc1 [a,a-dichlorotoluene]",-16
8,OC[C@H]1O[C@@H]2O[C@H]3[C@H](O)[C@@H](O)[C@@H](O[C@H]4[C@H](O)[C@@H](O)[C@@H](O[C@H]5[C@H](O)[C@@H](O)[C@@H](O[C@H]6[C@H](O)[C@@H](O)[C@@H](O[C@H]7[C@H](O)[C@@H](O)[C@@H](O[C@H]8[C@H](O)[C@@H](O)[C@@H](O[C@H]1[C@H](O)[C@H]2O)O[C@@H]8CO)O[C@@H]7CO)O[C@@H]6CO)O[C@@H]5CO)O[C@@H]4CO)O[C@@H]3CO,290
9,C=CCCCCCCCCCCC [1-tridecene],-23
10,ClC(Cl)(Cl)c1ccccc1 [(Trichloromethyl)benzene],-5
11,[O-][n+]1ccccc1S [Pyridine-2-thiol 1-oxide],70.5
12,"Oc1ccc(Cl)cc1Cc1cc(Cl)ccc1O [2,2'-Methylenebis(4-chlorophenol)]",170
13,O=C(O)COc1cccc(Cl)c1 [3-chlorophenoxyacetic acid],108
14,CCN(CC)CCNC(=O)c1cc(Cl)c(N)cc1OC [Metoclopramide],147
15,"CCSc1nnc(N)s1 [2-amino-5-ethylthio-1,3,4-thiadiazole]",132
16,"COc1ccc(/C=C/C(=O)c2ccccc2)cc1OC [3,4-dimethoxychalcone]",89
17,"c1ccc(OCCOc2ccccc2)cc1 [1,2-diphenoxyethane]",95
18,"CC(C)(C)c1cc(C#N)cc(C(C)(C)C)c1O [3,5-di-tert-butyl-4-hydroxybenzonitrile]",142
19,CC(C)(O)c1ccccc1 [2-phenyl-2-propanol],34
20,O=C1OC(c2ccccc2)=N/C1=C/c1ccc(-c2cccc([N+](=O)[O-])c2)o1,145
21,CC(C)(C)OO [tert-Butyl hydroperoxide],-3
22,"COC1(OC)CCC2(C)C(CCC3C4CCCC4(C)CCC32)C1 (centres undefined) [3,3-dimethoxyandrostane]",80
23,O=Cc1ccc(C(F)(F)F)cc1 [4-(trifluoromethyl)benzaldehyde],2
24,Nc1ccccc1N1CCOCC1 [2-(4-morpholinyl)aniline],97
25,C/C=C/C1Nn2c(nnc2-c2ccc(OC)cc2)S1 (centres undefined),81

row,Compound,melting point [°C]
1,CCOC(=O)c1ccc(N)cc1 [benzocaine],92
2,CCNCCO [2-(ethylamino)ethanol],-9
3,"CC(=O)Oc1ccc(-c2ccc(OC(C)=O)cc2)cc1 [4,4'-diacetoxybiphenyl]",164
4,"OB(O)c1c(F)c(F)c(F)c(F)c1F [2,3,4,5,6-pentafluorobenzeneboronic acid]",253
5,COc1ccccc1-c1ccc(/C=C/C(=O)c2ccccc2)o1,99
6,"C=C(C)CC(C)(C)C [2,4,4-trimethyl-1-pentene]",-93
7,"COc1ccc(CC(=O)O)cc1OC [(3,4-Dimethoxyphenyl)acetic acid]",98
8,CC(CCc1oc2ccccc2c1-c1ccc(C)o1)=NO,105
9,"Oc1c(Br)cc(Br)cc1Br [2,4,6-tribromophenol]",89
10,C1CCSC1 [Tetrahydrothiophene],-96
11,CCCCNC(=O)NS(=O)(=O)c1ccc(C)cc1 [Tolbutamide],128
12,CCOC(=O)c1ccc(Cl)c([N+](=O)[O-])c1 [ethyl 4-chloro-3-nitrobenzoate],54
13,COc1ccc(B(O)O)c(C(F)(F)F)c1 [4-methoxy-2-(trifluoromethyl)benzeneboronic acid],170
14,CC1C=CC=CCCC=CC=CC=CC=CC(OC2O[C@H](C)[C@@H](O)[C@H](N)[C@@H]2O)CC(O)C(C(=O)O)C(O)CC(=O)CC(O)C(O)CCC(O)CC(O)CC(O)CC(=O)OC(C)C(C)C1O (some centres undefined) [Nystatin],160
15,CO[Si](OC)(OC)OC [tetramethoxysilane],5
16,OCc1ccc(I)cc1 [4-iodobenzyl alcohol],73
17,O=C(O)c1sc2ccccc2c1Cl [3-chlorobenzo[b]thiophene-2-carboxylic acid],266
18,CC(=O)C(=Cc1ccc(-c2cccc([N+](=O)[O-])c2)o1)C(C)=O,154
19,c1ccc2c(c1)Cc1ccccc1O2 [Xanthene],101
20,"Cc1nc(-c2ccc(-c3nc(C)c(-c4ccccc4)o3)cc2)oc1-c1ccccc1 [1,4-bis(4-methyl-5-phenyloxazol-2-yl)benzene]",234
21,"O=C(/C=C/C=C/c1ccccc1)/C=C/C=C/c1ccccc1 [1,9-diphenyl-1,3,6,8-nonatetraen-5-one]",142
22,O=[N+]([O-])c1ccc(O)c(Cl)c1 [2-chloro-4-nitrophenol],110
23,CC(=O)OC1CCC2(C)C(C1)CC1(OCCO1)C1C2CCC2(C)C1CCC21OCCO1 (centres undefined),208
24,NCC(=O)O [glycine],262
25,O=C(O)/C=C/c1ccccc1Br [trans-2-bromocinnamic acid],218

row,Compound,melting point [°C]
1,C/C=C/CCC [trans-2-hexene],-133
2,CC(=NNC(=O)c1ccncc1)c1ccco1 [a-Methylfurfurylidenehydrazide of Isonicotinic Acid],199
3,CC(=O)Oc1ccc([N+](=O)[O-])cc1 [4-Nitrophenyl acetate],78
4,Cc1cc(O)ccc1F [4-fluoro-3-methylphenol],30
5,ClC(Cl)(Cl)C(Cl)(Cl)Cl [hexachloroethane],192
6,Clc1cc(-c2cc(Cl)c(Cl)c(Cl)c2Cl)c(Cl)c(Cl)c1Cl [PCB-194],157
7,Oc1ccc2ccccc2c1 [2-Naphthol],122
8,O=c1ccc2cc([N+](=O)[O-])ccc2o1 [6-nitrocoumarin],188
9,CCC(C)(C)C(=O)O[C@H]1C[C@@H](C)C=C2C=C[C@H](C)[C@H](CC[C@@H]3C[C@@H](O)CC(=O)O3)[C@H]21 [Simvastatin],136
10,"CN(C)c1ccc(Br)cc1 [4-bromo-n,n-dimethylaniline]",55
11,"CC(C)C(C)C [2,3-dimethylbutane]",-129
12,N#CCc1cccc(O)c1 [m-hydroxy_phenylacetonitrile],53
13,"O=C=N/c1cccc(N=C=O)c1C [1,3-Diisocyanato-2-methylbenzene]",20
14,CCOCCO [2-Ethoxyethanol],-90
15,"BrC(Br)c1ccc(C(Br)Br)cc1 [1,4-bis(dibromomethyl)benzene]",168
16,O=C1C=CC(=O)N1c1ccc(Br)cc1 [N-(4-bromophenyl)maleimide],129
17,O=Cc1ccc(B(O)O)cc1 [4-formylbenzeneboronic acid],263
18,O=S(=O)(c1ccccc1)c1ccsc1 [3-(phenylsulfonyl)thiophene],116
19,CC(C)(C)O [2-methyl-2-propanol],26
20,O=C(c1ccccc1)C(O)c1ccccc1 (centres undefined) [benzoin],135
21,"CC(=O)c1ccc2c(c1)CCO2 [5-acetyl-2,3-dihydrobenzo[b]furan]",58
22,"C=CC(=O)NCCNC(=O)C=C [N,N'-ethylenebisacrylamide]",142
23,O=C(O)c1cc([N+](=O)[O-])ccc1Cl [2-chloro-5-nitrobenzoic acid],167
24,CCCCCCCCSCCCCCCCC [di-n-octyl sulfide],1
